Laboratory results published in patent publication US6812010B1, “Method for enzymatic preparation of homogentisate” (Aventis Cropscience SA, priority 1997, dated 2004).

Assays:
[1] = test system: HPP-oxidase (protein extract from Arthrobacter globiformis); test: HPP-oxidase activity assay with inhibition by an HPPD inhibitor (HPLC detection of HPA); type: biochemical; conditions: 100 μM of HPPD inhibitor; 30° C., 5 min
Description: The cell pellet, which is approximately 3.4 g, is resuspended in 7 ml of extraction buffer (0.05 M potassium phosphate pH 7.5, 0.1 mM TPP, 0.1 mM MgCl2 and 5 mM mercaptoethanol) and sonicated twice at 23 kHz for 2.5 min. The resulting suspension is centrifuged at 44,000×g for 20 min. The harvested supernatant is again centrifuged at 100,000×g for 60 min. 0.7 ml of 2% protamine sulphate in the extraction buffer is added to the new 7-ml supernatant, followed by gentle stirring. The precipitate which forms is removed by a centrifugation at 20,000×g for 20 min. Ammonium sulphate is gradually added to the supernatant thus obtained so as to reach 60% saturation. This new preparation is stirred for 30 min., and the precipitate formed harvested by centrifugation at 20,000×g for 20 min. The pellet is redissolved in 0.5 ml of extraction buffer and aliquoted in 0.1-ml fractions, these fractions being kept at −80° C. before use.
The HPP-oxidase activity is measured in a 96-well microtitration plate with 200 μl of reaction per well consisting of […] of 67 mM sodium phosphate pH 7.4, 10 μl of 13.4 mM glutathione, 10 μl of 67 mM MgCl2, 10 μl of 26.7 mM TPP, 10 μl of 67 μM FAD, […] (i.e. approximately 6 μg) and 10 μl of 2.5 mM HPP. […]
The plate is then centrifuged at 2000 rpm for 15 min., and the supernatant is analysed by HPLC. […]

[2] = test system: HPA-hydroxylase (protein extract from Pseudomonas acidovorans); test: HPA-hydroxylase activity assay with inhibition by an HPPD inhibitor (HPLC detection of HMO); type: biochemical; conditions: 100 μM of HPPD inhibitor; 30° C., 5 min
Description: The cell pellet, which is approximately 0.5 g, is resuspended in 1.5 ml of extraction buffer (0.1 M potassium phosphate pH 7.2, 1 mM DTE and 5 mM MgMgSO4) and sonicated twice at 23 kHz for 2.5 min. The resulting suspension is centrifuged at 44,000×g for 20 min. The harvested supernatant is again centrifuged at 100,000×g for 60 min. The new supernatant is aliquoted in 0.1-ml fractions, these fractions being kept at −80° C. before use. The HPA-hydroxylase activity is measured in a 96-well microtitration plate with 200 μl of reaction per well consisting of 150 μl of 0.1 M sodium phosphate fits pH 7.2, 10 μl of 20 mM DTE, 10 μl of 3 mM NADH, 15 μl of 67 μM FAD, 10 μl of protein (i.e. approximately 7 μg) and 5 μl of 10 mM HPA. When an assay for inhibition by an HPPD inhibitor is carried out, 2 μl of 10 mM 4-[4-trifluoromethyl-2-(methylsulphonyl)benzoyl]-5-cyclopropylisoxazole are added to a phosphate buffer containing 20% of DMSO. The reaction is initiated by adding the substrate, HPA; it takes place at 30° C. for 5 min. with stirring. The reaction is stopped by adding 33 μl of 25% perchloric acid. The plate is then centrifuged at 2000 rpm for 15 min., and the supernatant is analysed by HPLC. 10 μl of the supernatant is injected onto a Spherisorb ODS2 column equilibrated with buffer A (5.5% acetonitrile, 0.1% TFA) at the flow rate of 1.5 ml/min. The detection is carried out at 292 nm. […]

## CS(=O)(=O)c1cc(C(F)(F)F)ccc1C(=O)c1cnoc1C1CC1 [HPPD inhibitor, 4-[4-trifluoromethyl-2-(methylsulphonyl)benzoyl]-5-cyclopropylisoxazole]
[1]
  inhibition of the enzyme transforming HPP into HPA: not inhibited
[2]
  inhibition of the enzyme transforming HPA into HMO: not inhibited
